Reference: BindingDB's records for PubMed 9686407 (Sri International, 1998)
Counter-ions that a name gives are not always drawn.

Legend:
[1] = biological target: 5-hydroxytryptamine receptor 2A (Rattus norvegicus, UniProt P14842)
[2] = biological target: T1, 5-hydroxytryptamine receptor 3A (Mus musculus, UniProt P23979)
T1 sequence (P23979 whole entry): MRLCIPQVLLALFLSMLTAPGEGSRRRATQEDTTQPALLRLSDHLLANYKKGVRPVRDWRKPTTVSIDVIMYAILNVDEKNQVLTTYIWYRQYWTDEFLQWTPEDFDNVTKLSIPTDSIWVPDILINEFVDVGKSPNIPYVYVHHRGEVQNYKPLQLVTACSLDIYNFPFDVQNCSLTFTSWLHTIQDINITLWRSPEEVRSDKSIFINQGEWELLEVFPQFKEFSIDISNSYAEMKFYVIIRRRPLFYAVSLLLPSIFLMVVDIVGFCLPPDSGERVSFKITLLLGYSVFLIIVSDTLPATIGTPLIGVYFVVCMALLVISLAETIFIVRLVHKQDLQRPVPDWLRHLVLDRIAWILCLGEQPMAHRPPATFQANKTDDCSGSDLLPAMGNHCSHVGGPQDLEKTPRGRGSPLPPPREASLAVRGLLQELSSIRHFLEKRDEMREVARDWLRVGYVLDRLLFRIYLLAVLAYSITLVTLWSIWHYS

D(1A) dopamine receptor = D(1A) dopamine receptor (Homo sapiens, UniProt P21728)
[3] = biological target: T2, 5-hydroxytryptamine receptor 1A (Homo sapiens, UniProt P08908)
T2 sequence (P08908 whole entry): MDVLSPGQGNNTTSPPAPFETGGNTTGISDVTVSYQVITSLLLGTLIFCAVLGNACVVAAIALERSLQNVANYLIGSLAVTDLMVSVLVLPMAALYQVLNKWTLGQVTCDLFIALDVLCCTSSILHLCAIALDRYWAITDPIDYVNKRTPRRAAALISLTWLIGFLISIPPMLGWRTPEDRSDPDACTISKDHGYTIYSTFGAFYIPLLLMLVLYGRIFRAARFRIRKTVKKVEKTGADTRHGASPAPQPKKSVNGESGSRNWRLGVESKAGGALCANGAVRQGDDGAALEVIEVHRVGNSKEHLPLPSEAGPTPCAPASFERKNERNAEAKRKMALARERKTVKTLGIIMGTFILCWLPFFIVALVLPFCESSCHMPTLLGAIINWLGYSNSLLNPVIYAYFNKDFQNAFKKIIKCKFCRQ

[4] = biological target: T3, 5-hydroxytryptamine receptor 2C (Rattus norvegicus, UniProt P08909)
T3 sequence (P08909 whole entry): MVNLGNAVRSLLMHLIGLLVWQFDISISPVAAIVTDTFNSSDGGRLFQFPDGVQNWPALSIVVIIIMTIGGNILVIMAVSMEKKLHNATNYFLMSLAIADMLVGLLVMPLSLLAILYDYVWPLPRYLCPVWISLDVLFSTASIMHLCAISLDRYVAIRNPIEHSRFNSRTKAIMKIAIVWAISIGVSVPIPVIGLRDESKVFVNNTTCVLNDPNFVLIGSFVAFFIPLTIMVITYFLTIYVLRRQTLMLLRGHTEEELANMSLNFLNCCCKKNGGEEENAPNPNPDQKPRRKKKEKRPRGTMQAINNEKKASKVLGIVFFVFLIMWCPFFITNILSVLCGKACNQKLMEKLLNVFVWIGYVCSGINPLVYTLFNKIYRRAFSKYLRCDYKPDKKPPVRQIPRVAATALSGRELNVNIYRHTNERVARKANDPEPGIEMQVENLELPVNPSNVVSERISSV

Sequence of D(1A) dopamine receptor (P21728 whole entry): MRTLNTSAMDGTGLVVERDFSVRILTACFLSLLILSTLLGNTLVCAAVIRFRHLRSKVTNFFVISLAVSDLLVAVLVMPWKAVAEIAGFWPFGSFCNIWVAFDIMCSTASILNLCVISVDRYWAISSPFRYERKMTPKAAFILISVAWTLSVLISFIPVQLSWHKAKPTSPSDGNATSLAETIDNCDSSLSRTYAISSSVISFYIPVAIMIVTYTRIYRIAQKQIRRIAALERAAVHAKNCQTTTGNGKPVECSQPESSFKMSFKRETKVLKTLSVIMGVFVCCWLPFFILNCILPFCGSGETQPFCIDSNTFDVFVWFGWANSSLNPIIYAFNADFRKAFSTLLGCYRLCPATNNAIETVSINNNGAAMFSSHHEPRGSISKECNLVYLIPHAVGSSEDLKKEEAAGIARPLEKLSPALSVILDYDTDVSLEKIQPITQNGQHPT
Sequence of 5-hydroxytryptamine receptor 2A (P14842 whole entry): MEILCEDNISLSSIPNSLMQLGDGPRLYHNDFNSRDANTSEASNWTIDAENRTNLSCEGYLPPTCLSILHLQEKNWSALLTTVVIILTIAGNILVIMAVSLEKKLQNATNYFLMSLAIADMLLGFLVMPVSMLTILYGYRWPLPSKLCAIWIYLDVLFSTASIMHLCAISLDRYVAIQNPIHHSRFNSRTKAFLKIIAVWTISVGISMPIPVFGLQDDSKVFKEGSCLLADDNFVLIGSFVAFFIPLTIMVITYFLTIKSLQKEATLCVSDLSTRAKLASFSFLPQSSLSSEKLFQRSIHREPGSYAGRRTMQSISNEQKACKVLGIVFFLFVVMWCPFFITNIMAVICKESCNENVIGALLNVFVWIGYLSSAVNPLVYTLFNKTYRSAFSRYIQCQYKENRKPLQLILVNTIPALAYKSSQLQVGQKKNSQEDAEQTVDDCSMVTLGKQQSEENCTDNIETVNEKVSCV

SMILES | Ki [1] | Ki [2] | Ki (D(1A) dopamine receptor) | Ki [3] | Ki [4]
CCCN(CCC)C1CCc2cccc(O)c2C1 (stereo unspecified) | > 10 µM | > 10 µM | > 10 µM |  | 
Cc1nc2sccn2c(=O)c1CCN1CCC(=C(c2ccc(F)cc2)c2ccc(F)cc2)CC1 |  | > 10 µM | 0.933 µM |  | 
Oc1cc2c(cc1O)[C@@H](c1ccccc1)CNCC2 | 6.16 µM | > 10 µM |  | 3.1 µM | > 10 µM
C=CCN1CCc2cc(O)c(O)cc2C(c2ccccc2)C1 (stereo unspecified) | 2.7 µM |  |  | 2.11 µM | 3.04 µM
CC(N)Cc1ccc2c(c1)OCO2 (stereo unspecified) |  | > 10 µM | > 10 µM | > 10 µM | 
CN1C2CCC1CC(OC(=O)c1c[nH]c3ccccc13)C2 (stereo unspecified) | 5.61 µM | 0.0005 µM | > 10 µM | > 10 µM | > 10 µM
CC(C)(C)[C@]1(O)CCN2C[C@H]3c4ccccc4CCc4cccc(c43)[C@@H]2C1 | 0.0052 µM | > 10 µM |  | 0.528 µM | 1.06 µM
CN(C)CCCN1c2ccccc2CCc2ccccc21 |  | 3.65 µM | > 10 µM | > 10 µM | 0.106 µM
Cc1[nH]c2ccc(O)cc2c1CCN | > 10 µM | 0.995 µM | > 10 µM |  | 1.37 µM
c1ccc2c(c1)OCC(C1=NCCN1)O2 (stereo unspecified) | > 10 µM | > 10 µM | > 10 µM | 0.662 µM | > 10 µM
COC(=O)[C@@H](c1ccccc1)[C@@H]1CCCCN1 | > 10 µM | > 10 µM | > 10 µM | > 10 µM | > 10 µM
NCCc1ccc(O)c(O)c1 | > 10 µM | > 10 µM |  | 8.25 µM | > 10 µM
C=CCN1CCc2c(cc(O)c(O)c2Cl)C(c2ccccc2)C1 (racemic) [SKF 82958] | 1.29 µM | > 10 µM |  | 1.78 µM | 4.63 µM
O=c1[nH]c2ccccc2n1C1CCN(CCCC(c2ccc(F)cc2)c2ccc(F)cc2)CC1 [1-(1-(4,4-bis(4-fluorophenyl)butyl)piperidin-4-yl)-1H-benzo[d]imidazol-2(3H)-one] | 0.049 µM | 3.29 µM |  |  | 5.79 µM
c1ccc2nc(N3CCNCC3)ccc2c1 [2-Piperazin-1-yl-quinoline (Quipazine)] | 0.092 µM | 0.0032 µM | > 10 µM |  | 0.653 µM
OCCN1CCN(CCCN2c3ccccc3Sc3ccc(C(F)(F)F)cc32)CC1 [2-[4-[3-[2-(trifluoromethyl)phenothiazin-10-yl]propyl]piperazin-1-yl]ethanol;hydrochloride] |  | > 10 µM |  |  | 
NC(Cc1ccc(O)c(O)c1)C(=O)O (stereo unspecified) [2-amino-3-(3,4-dihydroxyphenyl)propanoic acid] | > 10 µM | > 10 µM |  |  | > 10 µM
COc1ccccc1N1CCN(CCCCN2C(=O)c3ccccc3C2=O)CC1 [2-{4-[4-(2-Methoxy-phenyl)-piperazin-1-yl]-butyl}-isoindole-1,3-dione] | 0.549 µM | > 10 µM | 4.51 µM |  | 4.12 µM
O=C(c1ccc(F)cc1)C1CCN(CCn2c(=O)[nH]c3ccccc3c2=O)CC1 [3-(2-{4-[(4-fluorophenyl)carbonyl]piperidin-1-yl}ethyl)-1,2,3,4-tetrahydroquinazoline-2,4-dione] |  | > 10 µM |  |  | 0.069 µM
CCc1cc(Cl)c(OC)c(C(=O)NC[C@@H]2CCCN2CC)c1O [3-Chloro-5-ethyl-N-((S)-1-ethyl-pyrrolidin-2-ylmethyl)-6-hydroxy-2-methoxy-benzamide] | 0.705 µM | > 10 µM | > 10 µM | 1.79 µM | > 10 µM

SMILES | Ki [1] | Ki [2] | Ki (D(1A) dopamine receptor) | Ki [3] | Ki [4]
CCN(CC)CCNC(=O)c1cc(Cl)c(N)cc1OC [4-amino-5-chloro-N-[2-(diethylamino)ethyl]-2-methoxy-benzamide;hydrochloride] |  | 0.353 µM | > 10 µM | > 10 µM | 3.86 µM
O=C(CCCN1CCC2(CC1)C(=O)NCN2c1ccccc1)c1ccc(F)cc1 [8-[4-(4-fluorophenyl)-4-oxidanylidene-butyl]-1-phenyl-1,3,8-triazaspiro[4.5]decan-4-one] |  | > 10 µM |  |  | 
CN1Cc2c(N)cccc2[C@H](c2ccccc2)C1 [(+/-)-2-Methyl-4-phenyl-1,2,3,4-tetrahydro-isoquinolin-8-ylamine] |  | > 10 µM | > 10 µM | 1.18 µM | 
Oc1cc2c(c(Cl)c1O)CCNC[C@@H]2c1ccccc1 [(R)-6-Chloro-7,8-dihydroxy-1-phenyl-2,3,4,5-tetrahydro-1H-benzo[d]azepinium] | 3.08 µM |  |  | 5.52 µM | 1.51 µM
OCCN1CCN(CC/C=C2/c3ccccc3Sc3ccc(C(F)(F)F)cc32)CC1 [(cis) 2-{4-[3-(2-Trifluoromethyl-thioxanthen-9-ylidene)-propyl]-piperazin-1-yl}-ethanol(Flupentixol)] |  | > 10 µM |  | 8.03 µM | 0.295 µM
CN1CCc2cccc3c2[C@H]1Cc1ccc(O)c(O)c1-3 [APOKYN] | 4.38 µM | > 10 µM |  |  | 1.1 µM
CNCCCN1c2ccccc2CCc2ccccc21 [Desmethylimipramine] |  | 4.4 µM |  |  | 0.748 µM
OCCN1CCN(CC/C=C2/c3ccccc3Sc3ccc(C(F)(F)F)cc32)CC1 [Fluphenthixol] | 0.013 µM |  |  |  | 
CN[C@@H](C)Cc1ccc2c(c1)OCO2 [MDMA, R(-)] | 3.91 µM | > 10 µM | > 10 µM | > 10 µM | 
CCN1CCCC1CNC(=O)c1cc(S(N)(=O)=O)ccc1OC (stereo unspecified) [N-[(1-ethylpyrrolidin-2-yl)methyl]-2-methoxy-5-sulfamoylbenzamide] |  | > 10 µM | > 10 µM | > 10 µM | 
CCCN1CCC[C@@H]2Cc3n[nH]cc3C[C@H]21 [NSC_54562] | > 10 µM | > 10 µM |  | 1.71 µM | > 10 µM
Cc1nccn1CC1CCc2c(c3ccccc3n2C)C1=O (stereo unspecified) [NSC_68647] |  | 0.015 µM | > 10 µM | > 10 µM | 
CNc1cc(OC)c(C(=O)N[C@H]2CCN(Cc3ccccc3)[C@H]2C)cc1Cl [Nemonapride] | 0.058 µM | 0.526 µM |  |  | 3.12 µM
CN1CCc2cc(Cl)c(O)cc2[C@@H](c2ccccc2)C1 [SCH 23390,R(+)] | 0.0122 µM | 3.91 µM |  | 0.661 µM | 0.051 µM
Cc1ccc(N(CC2=NCCN2)c2cccc(O)c2)cc1 [SMR000059054] | 0.222 µM | 4.29 µM |  |  | 0.459 µM
N[C@@H]1C[C@H]1c1ccccc1 [Tranylcypromine,(+)] | > 10 µM | > 10 µM |  | 5.96 µM | > 10 µM
CN(C)CCCN1c2ccccc2Sc2ccc(Cl)cc21 [[3-(2-Chloro-phenothiazin-10-yl)-propyl]-dimethyl-amine(Chlorpromazine)] |  | 0.82 µM |  |  | 
C[C@H](N)Cc1ccccc1 [beta-aminopropylbenzene] |  | > 10 µM |  | 6.61 µM | 
CN(C)C/C=C(/c1ccc(Br)cc1)c1cccnc1 [cis-[3-(4-Bromo-phenyl)-3-pyridin-3-yl-allyl]-dimethyl-amine;HCl] |  | > 10 µM |  |  | 0.482 µM
COC(=O)[C@@H]1[C@H]2C[C@H]3c4[nH]c5ccccc5c4CCN3C[C@@H]2CC[C@@H]1O [yohimbic acid methyl ester] |  |  |  |  | > 10 µM
